Test results taken from patent US20240400572A1, “COMPOUNDS AND METHODS FOR TREATING CANCERS THAT ARE MGMT DEFICIENT REGARDLESS OF MMR STATUS” (Yale University, priority 2021, published 2024).

Experiments:
LN229 MGMT− MMR+ cells = test: Anticancer activity towards LN229 human brain glioblastoma cells (nuclei count after 120 hours); assay type: cell-based; settings: LN-229, LN229 quad cells, 200 μM to 0.1 uM
Method: (§1) Exemplary compounds were evaluated for activity against LN229 human brain glioblastoma cells. Experimental procedures and results are provided elsewhere herein.
(§2) LN229 quad cells were maintained in Dulbecco's Modified Eagle Medium (DMEM) supplemented with 10% fetal bovine serum. Cells were plated into sterile black with glass bottom 384-well plates (Cellvis) at a concentration of 1,000 cells/well (20 μL total volume) using a MultiDrop (Thermo Fisher). Then, assay plates were centrifuged at 300 rpm for 2 seconds and incubated overnight in a 37° C. 5% CO2 incubator. Compounds were prepared as 100 mM stocks in DMSO and stored protected from light at −20′C until use. Prior to compound addition, the stock solutions of compound were diluted two-fold serially in DMSO from 100 mM down to 0.05 mM in a 384-well Source plate. Vehicle control wells containing DMSO and positive control wells containing 10 mM bortezomib were also added to the Source plate. An aliquot in the amount of 40 nL of compound stock solution or DMSO vehicle was transferred from the source plate to the cell assay plate using an Echo Acoustic dispense (Beckman). Three replicate dilution curves of each compound were run on each assay plate. An aliquot in the amount of 120 nL of a 10 mM bortezomib solution was transferred to the positive control wells resulting in a final concentration of 60 μM. The final concentration of compounds ranged from 200 μM to 0.1 uM (12-point, 2-fold dilution dose response curve), and the final DMSO concentration was 0.2%.
(§3) Assay plates were centrifuged at 500 rpm for 2 seconds and incubated for 120 hours at 37° C. in a humidified 5% CO2 incubator. Following incubation, cells were fixed with 4% paraformaldehyde and stained with DAPI for nuclei visualization. The images were acquired on the InCell 2200 high content imager (GE, now […]), and quantified using InCell Analyzer image analysis software. Z prime factor, signal-to-background and coefficient of variation were calculated for each assays plate using mean and standard deviation values of the negative (vehicle) and positive (bortezomib) control wells to ensure assay robustness. Raw cell count data for test compounds was normalized to percent viability relative to the DMSO vehicle control. Data was plotted in GraphPad Prism using a variable slope 4-parameter fit.

LN229 MGMT− MMR− cells = test: as above; assay type: cell-based; settings: LN-229, LN229 quad cells, 200 μM to 0.1 uM
Method: as §1, §2, §3

LN229 MGMT+ MMR− cells = test: as above; assay type: cell-based; settings: LN-229, LN229 quad cells, 200 μM to 0.1 uM
Method: as §1, §2, §3

LN229 MGMT+ MMR+ cells = test: as above; assay type: cell-based; settings: LN-229, LN229 quad cells, 200 μM to 0.1 uM
Method: as §1, §2, §3

[1] = tested on: DLD1 BRCA2+/− and BRCA2−/− cells; test: Short-term cell viability assay in DLD1 isogenic model; assay type: cell-based, human
Method: FIGS. Z4A-Z4I. KL-50 (4a) activates DNA damage response pathways and cycle arrest in MGMT− cells, independent of MMR, and induces sensitivity in cells deficient in ICL or HR repair. (FIGS. Z4A, Z4B, and Z4C) Phospho-SER139-H2AX (γH2AX) (A), 53BP1 (FIG. Z4B), and phospo-SER33-RPA2 (pRPA) (FIG. Z4C) foci formation quantified by % cells with 10 foci in LN229 MGMT+/−, MMR+/− cells treated with 0.1% DMSO control, 20 μM KL-50 (4a), or 20 μM TMZ (1a) for 48 h. Columns, mean; error bars, SD; n≥5 technical replicates. Additional time course data is presented in FIG. ZS6B to D. (FIG. Z4D) Representative foci images of data in (FIG. Z4A) to (FIG. Z4C). (FIG. Z4E) Percentage of cells in G1, S, and G2 cell cycle phases after treatment as in (A) to (C), measured using integrated nuclear (Hoechst) staining intensity. Columns, mean; error bars, SD; n=3 independent analyses. (FIG. Z4F) Change in percent cells with 1 micronuclei from baseline (DMSO control) after treatment as in (FIG. Z4A) to (FIG. Z4C). Columns, mean; error bars, SD; […] technical replicates; **** p<0.0001; ns, not significant. Additional validation is presented in FIG. ZS9, A and B. (FIG. Z4G) Short-term viability assay curves for KL-50 (4a) in PD20 cells, deficient in FANCD2 (FANCD2−/−) or complemented with FANCD2 (+FANCD2). (FIG. Z4H) Short-term viability assay curves for KL-50 (4a) in PEO4 (BRCA2+) and PEO1 (BRCA2−/−) cells pre-treated with 0.01% DMSO control or 10 μM O^6BG (+O^6BG) for 1 h prior to KL-50 (4a) addition. (FIG. Z4I) Short-term viability assay curves for KL-50 (4a) in DLD1 BRCA2+/− and BRCA2−/− cells pre-treated with 0.01% DMSO control or 10 μM O^6BG (+O^6BG) for 1 h prior to KL-50 (4a) addition. For (FIG. Z4G), (FIG. Z4H), and (FIG. Z4I), points, mean; error bars, SD; n=3 technical replicates.
(§4) Short-term Cell Viability Assay. Cells were seeded in 96-well plates at 1000 or 2000 cells/well and allowed to adhere at 23° C. for 60 min and then incubated overnight at 37° C. Cells were treated with indicated concentrations of compounds in triplicate for 4-6 days prior to fixation with 3.7% paraformaldehyde and nuclear staining with 1 μg/mL Hoechst 33342 dye. Cells were imaged on a Cytation 3 imaging reader (BioTek) and quantified using CellProfiler software.

[2] = tested on: WT and XPA-deficient MEFs; test: Short-term cell viability assay in NER isogenic MEFs; assay type: cell-based, mouse; settings: WT versus XPA-deficient MEFs, ± MGMT depletion with O6BG
Method: FIGS. ZS5A-ZS5D. […] Columns, mean; error bars, SD; n=2 independent analyses. For (FIG. ZS5A) and (FIG. ZS5C), points, mean; error bars, SD; n=3 technical replicates.
as §4

[3] = tested on: linearized pUC19 plasmid DNA; test: Melting temperature assay; assay type: biochemical; settings: 100 or 500 μM for 3 h
Method: Melting Temperature Assay. Linearized pUC19 DNA (750 ng), prepared as described above, was incubated with the indicated concentration of either MMS or KL-50 (4a) adjusted in a final volume of 18 μL in 100 mM Tris buffer (pH 7.4) for 3 h. Drug stock concentrations were made in DMSO such that each reaction contained a fixed 5% DMSO concentration. Afterwards, 1 μL each of 20× SYBR Green dye (Invitrogen) and 20× ROX reference dye (Invitrogen) was added and melting temperature analysis was run on a StepOnePlus RT PCR System (Applied Biosciences) to generate melting temperature curves.

## CNC(=O)c1ncn2c(=O)n(CCF)nnc12 [Compound I-1, 3-(2-fluoroethyl)-N-methyl-4-oxo-3H,4H-imidazo[4,3-d][1,2,3,5]tetrazine-8-carboxamide]
LN229 MGMT− MMR+ cells
  IC50: 10 to 20 µM
LN229 MGMT− MMR− cells
  IC50: < 10 µM
LN229 MGMT+ MMR− cells
  IC50: > 80 µM
LN229 MGMT+ MMR+ cells
  IC50: > 80 µM

## NC(=O)c1ncn2c(=O)n(CCF)nnc12 [KL-50, 3-(2-fluoroethyl)-4-oxo-3H,4H-imidazo[4,3-d][1,2,3,5]tetrazine-8-carboxamide]
[1]; DLD1 BRCA2−/− versus BRCA2+/−, ± 10 μM O^6BG
  sensitivity of BRCA2-deficient cells (in words): BRCA2 loss enhanced the toxicity
[1]; ratio of IC50 values in MGMT+/BRCA2+ cells compared to MGMT−/BRCA2− cells
  therapeutic index (TI): ~600 fold
[2]
  sensitivity of XPA deficient cells (in words): absence of additional sensitivity
[3]
  change in DNA melting temperature (in words): comparable changes in measured DNA melting temperature
